Results taken from patent publication US10765114B2, “4-amino-6-(pyridyl and 2-substitutedphenyl)-picolinates and 6-amino-2-(pyridyl and 2-substitutedphenyl)-pyrimidine-4-carboxylates and their use as herbicides” (Dow AgroSciences LLC, priority 2013, dated 2020).

The compounds below were run on Key Grass and Sedge Weeds as well as Grass Crops (assay: Post-Emergent Test II (Table 6)). Conditions: post-emergence, 336 h, CYPSS, 70 g ai/ha, 14 days after application, read-out: Visual Growth Reduction (%) 14 Days After Application CYPSS.
Type: in vivo
Method in brief: (§1)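 Visual injury ratings (0 = no injury, 100 = complete kill) taken 14 days after treatment, relative to untreated controls. Compounds, in an acetone/DMSO aqueous carrier with crop oil and surfactant, were applied by track sprayer at 187 L/ha, in a twofold dilution series from the top rate, to plants at the first to second true-leaf stage.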
Compound `Nc1cc(-c2ccc(Cl)c(F)c2C(=O)O)nc(C(=O)O)c1Cl` [Compound 56, 4-Amino-6-(2-carboxy-4-chloro-3-fluorophenyl)-3-chloropicolinic acid] has a pest or weed control at 70 g/ha of 0 to 29%.

Same assay, conditions: post-emergence, 336 h, CYPSS, 140 g ai/ha, 14 days after application, read-out: Visual Growth Reduction (%) 14 Days After Application CYPSS
`Nc1cc(-c2ccc(Cl)c(F)c2C(=O)O)nc(C(=O)O)c1Cl` [Compound 56, 4-Amino-6-(2-carboxy-4-chloro-3-fluorophenyl)-3-chloropicolinic acid] gave a pest or weed control at 140 g/ha of 0 to 29%.

Same assay, conditions: post-emergence, 336 h, DIGSA: crabgrass (Digitaria sanguinalis), 70 g ai/ha, 14 days after application, read-out: Visual Growth Reduction (%) 14 Days After Application DIGSA
`Nc1cc(-c2ccc(Cl)c(F)c2C(=O)O)nc(C(=O)O)c1Cl` [Compound 56, 4-Amino-6-(2-carboxy-4-chloro-3-fluorophenyl)-3-chloropicolinic acid] was tested, and the pest or weed control at 70 g/ha was 0 to 29%.

Same assay, conditions: post-emergence, 336 h, DIGSA: crabgrass (Digitaria sanguinalis), 140 g ai/ha, 14 days after application, read-out: Visual Growth Reduction (%) 14 Days After Application DIGSA
Compound `Nc1cc(-c2ccc(Cl)c(F)c2C(=O)O)nc(C(=O)O)c1Cl` [Compound 56, 4-Amino-6-(2-carboxy-4-chloro-3-fluorophenyl)-3-chloropicolinic acid] has a pest or weed control at 140 g/ha of 0 to 29%.

Same assay, conditions: post-emergence, 336 h, ECHSS, 70 g ai/ha, 14 days after application, read-out: Visual Growth Reduction (%) 14 Days After Application ECHSS
`Nc1cc(-c2ccc(Cl)c(F)c2C(=O)O)nc(C(=O)O)c1Cl` [Compound 56, 4-Amino-6-(2-carboxy-4-chloro-3-fluorophenyl)-3-chloropicolinic acid] gave a pest or weed control at 70 g/ha of 0 to 29%.

Same assay, conditions: post-emergence, 336 h, ECHSS, 140 g ai/ha, 14 days after application, read-out: Visual Growth Reduction (%) 14 Days After Application ECHSS
In the case of `Nc1cc(-c2ccc(Cl)c(F)c2C(=O)O)nc(C(=O)O)c1Cl` [Compound 56, 4-Amino-6-(2-carboxy-4-chloro-3-fluorophenyl)-3-chloropicolinic acid], the pest or weed control at 140 g/ha was 0 to 29%.

Same assay, conditions: post-emergence, 336 h, ORYSS (crop), 70 g ai/ha, 14 days after application, read-out: Visual Growth Reduction (%) 14 Days After Application ORYSS
With `Nc1cc(-c2ccc(Cl)c(F)c2C(=O)O)nc(C(=O)O)c1Cl` [Compound 56, 4-Amino-6-(2-carboxy-4-chloro-3-fluorophenyl)-3-chloropicolinic acid] the pest or weed control at 70 g/ha was 0 to 29%.

Same assay, conditions: post-emergence, 336 h, ORYSS (crop), 140 g ai/ha, 14 days after application, read-out: Visual Growth Reduction (%) 14 Days After Application ORYSS
In the case of `Nc1cc(-c2ccc(Cl)c(F)c2C(=O)O)nc(C(=O)O)c1Cl` [Compound 56, 4-Amino-6-(2-carboxy-4-chloro-3-fluorophenyl)-3-chloropicolinic acid], the pest or weed control at 140 g/ha was 0 to 29%.

Same assay, conditions: post-emergence, 336 h, SETFA: giant foxtail (Setaria faberi), 70 g ai/ha, 14 days after application, read-out: Visual Growth Reduction (%) 14 Days After Application SETFA
Work on `Nc1cc(-c2ccc(Cl)c(F)c2C(=O)O)nc(C(=O)O)c1Cl` [Compound 56, 4-Amino-6-(2-carboxy-4-chloro-3-fluorophenyl)-3-chloropicolinic acid] yielded a pest or weed control at 70 g/ha of 0 to 29%.

Same assay, conditions: post-emergence, 336 h, SETFA: giant foxtail (Setaria faberi), 140 g ai/ha, 14 days after application, read-out: Visual Growth Reduction (%) 14 Days After Application SETFA
For `Nc1cc(-c2ccc(Cl)c(F)c2C(=O)O)nc(C(=O)O)c1Cl` [Compound 56, 4-Amino-6-(2-carboxy-4-chloro-3-fluorophenyl)-3-chloropicolinic acid], the pest or weed control at 140 g/ha was 0 to 29%.

Same assay, conditions: post-emergence, 336 h, SORVU: grain sorghum (Sorghum vulgare), 70 g ai/ha, 14 days after application, read-out: Visual Growth Reduction (%) 14 Days After Application SORVU
`Nc1cc(-c2ccc(Cl)c(F)c2C(=O)O)nc(C(=O)O)c1Cl` [Compound 56, 4-Amino-6-(2-carboxy-4-chloro-3-fluorophenyl)-3-chloropicolinic acid] showed a pest or weed control at 70 g/ha of 0 to 29%.

Same assay, conditions: post-emergence, 336 h, SORVU: grain sorghum (Sorghum vulgare), 140 g ai/ha, 14 days after application, read-out: Visual Growth Reduction (%) 14 Days After Application SORVU
Compound `Nc1cc(-c2ccc(Cl)c(F)c2C(=O)O)nc(C(=O)O)c1Cl` [Compound 56, 4-Amino-6-(2-carboxy-4-chloro-3-fluorophenyl)-3-chloropicolinic acid] has a pest or weed control at 140 g/ha of 0 to 29%.

Same assay, conditions: post-emergence, 336 h, TRZSS (crop), 70 g ai/ha, 14 days after application, read-out: Visual Growth Reduction (%) 14 Days After Application TRZSS
`Nc1cc(-c2ccc(Cl)c(F)c2C(=O)O)nc(C(=O)O)c1Cl` [Compound 56, 4-Amino-6-(2-carboxy-4-chloro-3-fluorophenyl)-3-chloropicolinic acid] was tested, and the pest or weed control at 70 g/ha was 0 to 29%.

Same assay, conditions: post-emergence, 336 h, TRZSS (crop), 140 g ai/ha, 14 days after application, read-out: Visual Growth Reduction (%) 14 Days After Application TRZSS
`Nc1cc(-c2ccc(Cl)c(F)c2C(=O)O)nc(C(=O)O)c1Cl` [Compound 56, 4-Amino-6-(2-carboxy-4-chloro-3-fluorophenyl)-3-chloropicolinic acid] showed a pest or weed control at 140 g/ha of 0 to 29%.

Same assay, conditions: post-emergence, 336 h, ZEAMX: maize, corn (Zea mays), 70 g ai/ha, 14 days after application, read-out: Visual Growth Reduction (%) 14 Days After Application ZEAMX
In the case of `Nc1cc(-c2ccc(Cl)c(F)c2C(=O)O)nc(C(=O)O)c1Cl` [Compound 56, 4-Amino-6-(2-carboxy-4-chloro-3-fluorophenyl)-3-chloropicolinic acid], the pest or weed control at 70 g/ha was 0 to 29%.

Same assay, conditions: post-emergence, 336 h, ZEAMX: maize, corn (Zea mays), 140 g ai/ha, 14 days after application, read-out: Visual Growth Reduction (%) 14 Days After Application ZEAMX
`Nc1cc(-c2ccc(Cl)c(F)c2C(=O)O)nc(C(=O)O)c1Cl` [Compound 56, 4-Amino-6-(2-carboxy-4-chloro-3-fluorophenyl)-3-chloropicolinic acid] showed a pest or weed control at 140 g/ha of 0 to 29%.

Each compound was assayed on Key Broadleaf Weed and Crop Species (assay: Post-Emergent Test II (Table 5)). Conditions: Abutilon theophrasti, post-emergence, 336 h, ABUTH: velvetleaf (Abutilon theophrasti), application rate 70 (kg ai/ha; footnote: g ai/ha), read-out: Visual Growth Reduction (%) 14 Days After Application ABUTH.
Type: in vivo
Method in brief: as §1
In the case of `Nc1cc(-c2ccc(Cl)c(F)c2C(=O)O)nc(C(=O)O)c1Cl` [Compound 56, 4-Amino-6-(2-carboxy-4-chloro-3-fluorophenyl)-3-chloropicolinic acid], the pest or weed control at 70 g/ha was 0 to 29%.

Same assay, conditions: Abutilon theophrasti, post-emergence, 336 h, ABUTH: velvetleaf (Abutilon theophrasti), application rate 140 (kg ai/ha; footnote: g ai/ha), read-out: Visual Growth Reduction (%) 14 Days After Application ABUTH
In the case of `Nc1cc(-c2ccc(Cl)c(F)c2C(=O)O)nc(C(=O)O)c1Cl` [Compound 56, 4-Amino-6-(2-carboxy-4-chloro-3-fluorophenyl)-3-chloropicolinic acid], the pest or weed control at 140 g/ha was 0 to 29%.

Same assay, conditions: Amaranthus retroflexus, post-emergence, 336 h, AMARE: redroot pigweed (Amaranthus retroflexus), application rate 70 (kg ai/ha; footnote: g ai/ha), read-out: Visual Growth Reduction (%) 14 Days After Application AMARE
Compound `Nc1cc(-c2ccc(Cl)c(F)c2C(=O)O)nc(C(=O)O)c1Cl` [Compound 56, 4-Amino-6-(2-carboxy-4-chloro-3-fluorophenyl)-3-chloropicolinic acid] has a pest or weed control at 70 g/ha of 0 to 29%.

Same assay, conditions: Amaranthus retroflexus, post-emergence, 336 h, AMARE: redroot pigweed (Amaranthus retroflexus), application rate 140 (kg ai/ha; footnote: g ai/ha), read-out: Visual Growth Reduction (%) 14 Days After Application AMARE
Compound `Nc1cc(-c2ccc(Cl)c(F)c2C(=O)O)nc(C(=O)O)c1Cl` [Compound 56, 4-Amino-6-(2-carboxy-4-chloro-3-fluorophenyl)-3-chloropicolinic acid] has a pest or weed control at 140 g/ha of 0 to 29%.

Same assay, conditions: Brassica napus, post-emergence, 336 h, BRSSS: oilseed rape, canola (Brassica napus), application rate 70 (kg ai/ha; footnote: g ai/ha), read-out: Visual Growth Reduction (%) 14 Days After Application BRSSS
Compound `Nc1cc(-c2ccc(Cl)c(F)c2C(=O)O)nc(C(=O)O)c1Cl` [Compound 56, 4-Amino-6-(2-carboxy-4-chloro-3-fluorophenyl)-3-chloropicolinic acid] has a pest or weed control at 70 g/ha of 0 to 29%.

Same assay, conditions: Brassica napus, post-emergence, 336 h, BRSSS: oilseed rape, canola (Brassica napus), application rate 140 (kg ai/ha; footnote: g ai/ha), read-out: Visual Growth Reduction (%) 14 Days After Application BRSSS
For `Nc1cc(-c2ccc(Cl)c(F)c2C(=O)O)nc(C(=O)O)c1Cl` [Compound 56, 4-Amino-6-(2-carboxy-4-chloro-3-fluorophenyl)-3-chloropicolinic acid], the pest or weed control at 140 g/ha was 0 to 29%.

Same assay, conditions: Chenopodium album, post-emergence, 336 h, CHEAL: lambsquarters (Chenopodium album), application rate 70 (kg ai/ha; footnote: g ai/ha), read-out: Visual Growth Reduction (%) 14 Days After Application CHEAL
`Nc1cc(-c2ccc(Cl)c(F)c2C(=O)O)nc(C(=O)O)c1Cl` [Compound 56, 4-Amino-6-(2-carboxy-4-chloro-3-fluorophenyl)-3-chloropicolinic acid] gave a pest or weed control at 70 g/ha of 45 to 59%.

Same assay, conditions: Chenopodium album, post-emergence, 336 h, CHEAL: lambsquarters (Chenopodium album), application rate 140 (kg ai/ha; footnote: g ai/ha), read-out: Visual Growth Reduction (%) 14 Days After Application CHEAL
Compound `Nc1cc(-c2ccc(Cl)c(F)c2C(=O)O)nc(C(=O)O)c1Cl` [Compound 56, 4-Amino-6-(2-carboxy-4-chloro-3-fluorophenyl)-3-chloropicolinic acid] has a pest or weed control at 140 g/ha of 75 to 84%.

Same assay, conditions: Euphorbia heterophylla, post-emergence, 336 h, EPHHL: wild poinsettia (Euphorbia heterophylla), application rate 70 (kg ai/ha; footnote: g ai/ha), read-out: Visual Growth Reduction (%) 14 Days After Application EPHHL
In the case of `Nc1cc(-c2ccc(Cl)c(F)c2C(=O)O)nc(C(=O)O)c1Cl` [Compound 56, 4-Amino-6-(2-carboxy-4-chloro-3-fluorophenyl)-3-chloropicolinic acid], the pest or weed control at 70 g/ha was 0 to 29%.

Same assay, conditions: Euphorbia heterophylla, post-emergence, 336 h, EPHHL: wild poinsettia (Euphorbia heterophylla), application rate 140 (kg ai/ha; footnote: g ai/ha), read-out: Visual Growth Reduction (%) 14 Days After Application EPHHL
In the case of `Nc1cc(-c2ccc(Cl)c(F)c2C(=O)O)nc(C(=O)O)c1Cl` [Compound 56, 4-Amino-6-(2-carboxy-4-chloro-3-fluorophenyl)-3-chloropicolinic acid], the pest or weed control at 140 g/ha was 0 to 29%.

Same assay, conditions: Helianthus annuus, post-emergence, 336 h, HELAN: sunflower (Helianthus annuus), application rate 70 (kg ai/ha; footnote: g ai/ha), read-out: Visual Growth Reduction (%) 14 Days After Application HELAN
For `Nc1cc(-c2ccc(Cl)c(F)c2C(=O)O)nc(C(=O)O)c1Cl` [Compound 56, 4-Amino-6-(2-carboxy-4-chloro-3-fluorophenyl)-3-chloropicolinic acid], the pest or weed control at 70 g/ha was 0 to 29%.

Same assay, conditions: Helianthus annuus, post-emergence, 336 h, HELAN: sunflower (Helianthus annuus), application rate 140 (kg ai/ha; footnote: g ai/ha), read-out: Visual Growth Reduction (%) 14 Days After Application HELAN
Work on `Nc1cc(-c2ccc(Cl)c(F)c2C(=O)O)nc(C(=O)O)c1Cl` [Compound 56, 4-Amino-6-(2-carboxy-4-chloro-3-fluorophenyl)-3-chloropicolinic acid] yielded a pest or weed control at 140 g/ha of 0 to 29%.

Same assay, conditions: Viola tricolor, post-emergence, 336 h, VIOTR: wild pansy (Viola tricolor), application rate 70 (kg ai/ha; footnote: g ai/ha), read-out: Visual Growth Reduction (%) 14 Days After Application VIOTR
With `Nc1cc(-c2ccc(Cl)c(F)c2C(=O)O)nc(C(=O)O)c1Cl` [Compound 56, 4-Amino-6-(2-carboxy-4-chloro-3-fluorophenyl)-3-chloropicolinic acid] the pest or weed control at 70 g/ha was 0 to 29%.

Same assay, conditions: Viola tricolor, post-emergence, 336 h, VIOTR: wild pansy (Viola tricolor), application rate 140 (kg ai/ha; footnote: g ai/ha), read-out: Visual Growth Reduction (%) 14 Days After Application VIOTR
For `Nc1cc(-c2ccc(Cl)c(F)c2C(=O)O)nc(C(=O)O)c1Cl` [Compound 56, 4-Amino-6-(2-carboxy-4-chloro-3-fluorophenyl)-3-chloropicolinic acid], the pest or weed control at 140 g/ha was 0 to 29%.
